Test results: patent publication US20040006070A1, “Intraspinal continuous infusion of midazolam hydrochloride for the treatment of pain” (priority 2002, published 2004)
Where two headings read alike, the source gives them in different places.

Columns and labels:
[1] = tested on: neuropathic pain model in the sheep; experiment: Neuropathic pain model in sheep, behavior monitoring (Observer 3.0) with visual analog pain score; format: in vivo
Source text: The neuropathic pain model in the sheep is created by placing four tight ligatures around the median, radial, or ulnar nerve (or a combination thereof) with 0-chromic gut suture. This method produces a chronic painful peripheral mononeuropathy which may be related to those conditions seen in humans with causalgia and reflex sympathetic dystrophy.
To evaluate animal behavior, the Observer 3.0 software (Noldus Information Technology, The Netherlands) was used to aid docmentation of a daily record of multiple traits. […] The behavior was then interpreted into a visual analog pain score (VAS), where 0 represents no pain and 100 represents severe pain.
Approximately three days prior to surgery each sheep will undergo a 15-minute baseline behavior evaluation. The observations made in this evaluation include, a computerized behavior software recording (the Observer) for 15minutes—gait monitoring—and recording of pain perception via visual analog scale-using the Observer. In some animals, recording of vital signs (blood pressure, heart rate, respirations per minute) will be performed using the Observer. Baseline values for pain perception are recorded via the mechanical stimulus device and/or behavior monitoring will also be performed at this time.
The sheep will be observed daily postoperatively. […] Observations of neuropathic pain development include changes in ambulation, alertness, appetite, urination, defecation, herding activity, body temperature and pain behaviors. This daily behavior is recorded utilizing the observer (an observational software system).

[2] = Toxicity in neuropathic pain sheep: clinical signs, necropsy, histopathology; format: in vivo; settings: sheep #604 Clint
Source text: Animals will be observed daily for any signs of clinical toxicity such as limping and loss of appetite. At necropsy the spinal cord will be examined for any gross changes. Histopathologic evaluation will be performed on all animals after drug studies are complete. These examinations will detect any neurotoxicity that may be present due to the spinal infusion of midazolam.

[3] = cited from earlier work
[4] = Physiological data: indirect blood pressure, pulse, rectal temperature, weight; format: in vivo, sheep; settings: sheep #980 Dudley
Source text: Daily rectal temperatures were taken and any behavioral/motor changes were noted. Gait monitoring will be conducted as described below based on a four-grade scale for the evaluation of behavioral and motor changes. Grade 0: animal standing, sheep is able to rise and ambulate without any difficulty. Grade 1: Shuffling of either rear leg or slight limp; slight distortion of normal spinal axis. Grade 2: Loss of righting reflex in one of the rear legs, sheep able to stand without assistance, but with some difficulty. Grade 3: Inability to maintain standing posture; attempts to help animal stand are unsuccessful.
Indirect blood pressure, pulse recording, pain testing (mechanical stimulus device, cold and warm water baths see description in procedure) and weight were taken on days 1, 3, 7, 15, 22, 29, 36, and 43. Venous blood samples (15 ml drawn from the jugular vein with Vacutainer brand blood collection tubes) for complete blood count, electrolytes, and extended blood chemistry were drawn on days 1, 15, and 43 (mild procedure only light hand restraint necessary).

[5] = sheep #980 Dudley, MDZ 2 mg per day
[6] = sheep #980 Dudley, MDZ 2 mg per day, daily values
[7] = sheep #980 Dudley, MDZ 3 mg per day
[8] = sheep #980 Dudley, MDZ 3 mg per day, daily values, first and second course
[9] = sheep #980 Dudley, MDZ 4 mg per day
[10] = sheep #980 Dudley, MDZ 5 mg per day, daily values
[11] = sheep #980 Dudley, MDZ 6 mg per day
[12] = sheep #980 Dudley, MDZ 6 mg per day, daily values
[13] = sheep #980 Dudley, MS 1 mg per day, daily values
[14] = sheep #980 Dudley, MS 2 mg per day
[15] = sheep #980 Dudley, MS 3 mg per day, daily values
[16] = sheep #980 Dudley, MS 4 mg per day
[17] = sheep #980 Dudley, MS 5 mg per day
[18] = sheep #980 Dudley, MS 5 mg per day, daily values
[19] = sheep #980 Dudley, MS 6 mg per day
[20] = sheep #980 Dudley, MS 6.5 mg per day, daily values

CN1CC[C@]23c4c5ccc(O)c4O[C@H]2[C@@H](O)C=C[C@H]3[C@H]1C5.O=S(=O)(O)O [morphine, morphine sulfate]
Pain Score ([1]; Sheep #604 Clint, 6 mg Morphine per day intrathecal, first infusion period, Dec. 7, 2001, day of study 0): 60%
Pain Score ([1]; Sheep #604 Clint, 6 mg Morphine per day intrathecal, first infusion period, Dec. 8, 2001, day of study 1): 60%
Pain Score ([1]; Sheep #604 Clint, 6 mg Morphine per day intrathecal, first infusion period, Dec. 9, 2001, day of study 2): 60%
Pain Score ([1]; Sheep #604 Clint, 6 mg Morphine per day intrathecal, first infusion period, Dec. 11, 2001, day of study 4): 45%
Pain Score ([1]; Sheep #604 Clint, 6 mg Morphine per day intrathecal, first infusion period, Dec. 12, 2001, day of study 5): 30%
Pain Score ([1]; Sheep #604 Clint, 6 mg Morphine per day intrathecal, first infusion period, Dec. 13, 2001, day of study 6): 35%
Pain Score ([1]; Sheep #604 Clint, 6 mg Morphine per day intrathecal, first infusion period, Dec. 14, 2001, day of study 7): 40%
Pain Score ([1]; Sheep #604 Clint, 6 mg Morphine per day intrathecal, first infusion period, Dec. 15, 2001, day of study 8): 50%
Pain Score ([1]; Sheep #604 Clint, 6 mg Morphine per day intrathecal, first infusion period, Dec. 16, 2001, day of study 9): 40%
Pain Score ([1]; Sheep #604 Clint, 6 mg Morphine per day intrathecal, first infusion period, Dec. 17, 2001, day of study 10): 33%
Pain Score ([1]; Sheep #604 Clint, 6 mg Morphine per day intrathecal, first infusion period, Dec. 18, 2001, day of study 11): 35%
Pain Score ([1]; Sheep #604 Clint, 6 mg Morphine per day intrathecal, first infusion period, Dec. 19, 2001, day of study 12): 35%
Pain Score ([1]; Sheep #604 Clint, 6 mg Morphine per day intrathecal, first infusion period, Dec. 20, 2001, day of study printed 0, changed to saline at 1:30 PM): 33%
Pain Score ([1]; Sheep #604 Clint, 6 mg Morphine per day intrathecal, second infusion period after saline, Dec. 29, 2001, day of study 1): 50%
Pain Score ([1]; Sheep #604 Clint, 6 mg Morphine per day intrathecal, second infusion period after saline, Dec. 30, 2001, day of study 2): 40%
Pain Score ([1]; Sheep #604 Clint, 6 mg Morphine per day intrathecal, second infusion period after saline, Dec. 31, 2001, day of study 3): 38%
Pain Score ([1]; Sheep #604 Clint, 6 mg Morphine per day intrathecal, second infusion period after saline, Jan. 1, 2002, day of study 4): 40%
Pain Score ([1]; Sheep #604 Clint, 6 mg Morphine per day intrathecal, second infusion period after saline, Jan. 2, 2002, day of study 5): 30%
Pain Score ([1]; Sheep #604 Clint, 6 mg Morphine per day intrathecal, second infusion period after saline, Jan. 3, 2002, day of study 6): 33%
Pain Score ([1]; Sheep #604 Clint, 6 mg Morphine per day intrathecal, second infusion period after saline, Jan. 4, 2002, day of study 7): 30%
Pain Score ([1]; Sheep #604 Clint, 6 mg Morphine per day intrathecal, second infusion period after saline, Jan. 5, 2002, day of study 8): 30%
Pain Score ([1]; Sheep #604 Clint, 6 mg Morphine per day intrathecal, second infusion period after saline, Jan. 6, 2002, day of study 9): 30%
Pain Score ([1]; Sheep #604 Clint, 6 mg Morphine per day intrathecal, second infusion period after saline, Jan. 7, 2002, day of study 10): 30%
Pain Score ([1]; Sheep #604 Clint, 6 mg Morphine per day intrathecal, second infusion period after saline, Jan. 8, 2002, day of study 11): 30%
Pain Score ([1]; Sheep #604 Clint, 6 mg Morphine per day intrathecal, second infusion period after saline, Jan. 9, 2002, day of study 12, pump then refilled with saline at 9:44 AM): 15%
average pain score ([1]; sheep #604 Clint, first 13 days of infusion at 6 mg/day): 43%
average pain scores ([1]; sheep #604 Clint, later infusions begun with either morphine or saline): 30-50%
average pain score ([1]; sheep #980 Dudley, 1 mg/day gradually increased to 6 mg/day): 76%
Pain Score ([1]; sheep #980 Dudley, 6.5 mg/day after 13 days of treatment): 20%
clinical behavior during therapy ([2]; intrathecal): restlessness, pain behaviors such as biting itself near the area of the catheter tip, and frequently laying down
necropsy, spinal cord ([2]; lesion 0.8 cm (L)×0.5 cm (W)×0.3 cm (Depth)): cavitated lesion in the spinal cord in front of the catheter tip
approximate equipotent dose, IV ([3]; in vivo, iv): 200
approximate equipotent dose, PO ([3]; in vivo, po): 600
approximate equipotent dose, IT ([3]; in vivo): 10

Cc1ncc2n1-c1ccc(Cl)cc1C(c1ccccc1F)=NC2 [MDZ]
Other behavior: Defaecation [1, 5]: 0.65%
Other behavior: Eating lying [1, 5]: 1.69%
Other behavior: Ruminating laying down [1, 5]: 98.28%,
Other behavior: Ruminating standing [1, 5]: 0.48%
Grind teeth [1, 6]: 0%
Other behavior [1, 6]: 0
Other behavior: Defaecation [1, 7]: 0.49%
Other behavior: Drinking [1, 7]: 0.6%
Other behavior: Eating lying [1, 7]: 1.14%
Grind teeth [1, 8]: 0%
Holding unoperated leg off the ground [1, 8]: 0%
Other behavior [1, 8]: 0
Eating [1, 9]: 36.49%
Grind teeth [1, 9]: 0%
Holding operated leg off the ground [1, 9]: 2.78%
Holding unoperated leg off the ground [1, 9]: 0.36%
Laying down [1, 9]: 0%
Not bearing weight on operated leg [1, 9]: 29.65%
Observe Operated leg [1, 9]: 1.51%
Other behavior: Bleating [1, 9]: 0.76%
Pain Score [1, 9]: 50%
Standing [1, 9]: 0.52%
Walking [1, 9]: 1.09%
Grind teeth [1, 10]: 0%
Holding unoperated leg off the ground [1, 10]: 0%
Laying down [1, 10]: 0%
Observe Operated leg [1, 10]: 0%
Pain Score [1, 10]: 85%
Standing [1, 10]: 0%
Other behavior: Defaecation [1, 11]: 0.94%
Other behavior: Eating lying [1, 11]: 0.21%
Other behavior: Pulling wool [1, 11]: 0.26%,
Grind teeth [1, 12]: 0%
Holding unoperated leg off the ground [1, 12]: 0%
Laying down [1, 12]: 0%
Other behavior [1, 12]: 0
Standing [1, 12]: 0%
Resp per min. ([4]; MDZ 4 mg per day): 58 per min.

CN1CC[C@]23c4c5ccc(O)c4O[C@H]2[C@@H](O)C=C[C@H]3[C@H]1C5.CN1CC[C@]23c4c5ccc(O)c4O[C@H]2[C@@H](O)C=C[C@H]3[C@H]1C5.O=S(=O)(O)O [MS]
Other behavior: Drink ([1]; sheep #980 Dudley, MS 1 mg per day): 0.5%
Laying down [1, 13]: 0%
Other behavior [1, 13]: 0
Eating [1, 14]: 0%
Grind teeth [1, 14]: 1.39%
Holding operated leg off the ground [1, 14]: 15.88%
Holding unoperated leg off the ground [1, 14]: 0%
Laying down [1, 14]: 0%
Not bearing weight on operated leg [1, 14]: 64.74%
Observe Operated leg [1, 14]: 0.19%
Other behavior [1, 14]: 0
Pain Score [1, 14]: 90%
Standing [1, 14]: 17.34%
Walking [1, 14]: 0.47%
Other behavior: Ruminating standing ([1]; sheep #980 Dudley, MS 3 mg per day): 2.69%
Holding unoperated leg off the ground [1, 15]: 0%
Laying down [1, 15]: 0%
Other behavior [1, 15]: 0
Pain Score [1, 15]: 85%
Standing [1, 15]: 0%
Eating [1, 16]: 4.72%
Grind teeth [1, 16]: 0%
Holding operated leg off the ground [1, 16]: 5.2%
Holding unoperated leg off the ground [1, 16]: 0%
Laying down [1, 16]: 0%
Not bearing weight on operated leg [1, 16]: 69.53%
Observe Operated leg [1, 16]: 0%
Other behavior: Ruminating standing [1, 16]: 15.2%
Pain Score [1, 16]: 83%
Standing [1, 16]: 0%
Walking [1, 16]: 5.36%
Other behavior: Bleating [1, 17]: 0.98%
Other behavior: Eating lying [1, 17]: 0.7%,
Other behavior: Pulling wool [1, 17]: 0.28%,
Other behavior: pawing ground [1, 17]: 0.85%
Grind teeth [1, 18]: 0%
Standing [1, 18]: 0%
Eating [1, 19]: 0%
Grind teeth [1, 19]: 0%
Holding operated leg off the ground [1, 19]: 9.77%
Holding unoperated leg off the ground [1, 19]: 0.52%
Laying down [1, 19]: 43.57%
Not bearing weight on operated leg [1, 19]: 35.43%
Observe Operated leg [1, 19]: 0.66%
Other behavior [1, 19]: 0
Pain Score [1, 19]: 80%
Standing [1, 19]: 0.99%
Walking [1, 19]: 9.07%
Other behavior: Eating lying ([1]; sheep #980 Dudley, MS 6.5 mg per day): 9.31%
Holding unoperated leg off the ground [1, 20]: 0%
Other behavior [1, 20]: 0
Resp per min. ([4]; MS 2 mg per day): 22 per min.
Resp per min. ([4]; MS 4 mg per day): 64 per min.
Resp per min. ([4]; MS 6 mg per day): 64 per min.

COc1ccc2c3c1O[C@H]1C(=O)CC[C@@]4(O)[C@@H](C2)N(C)CC[C@]314 [Oxycodone]
approximate equipotent dose, IT ([3]; route IT): 10
approximate equipotent dose, IV ([3]; route IV): 200
approximate equipotent dose, PO ([3]; route PO): 600
